Series [1] can be described thus: Clearance in rat at 10 mg/kg, po. Format: ADME, organism-based. As to conditions: in vivo.
Series [2] concerns the target Histone-lysine N-methyltransferase EHMT1 (Homo sapiens) (UniProt Q9H9B1). The experiment in a line: Inhibition of GLP (unknown origin) at 10 uM using SAM as substrate measured up to 960 mins by AlphaScreen microplate reader assay relative to control. As to conditions: time min <=960. (In general: Bead proximity is the source of the signal in Alpha formats.)
Series [3] deals with Protein arginine N-methyltransferase 3 (Homo sapiens) (UniProt O60678). The experiment in a line: Inhibition of PRMT3 (unknown origin) at 10 uM using SAM as substrate measured up to 960 mins by AlphaScreen microplate reader assay relative to control. Conditions: time min <=960.
For series [4], the target named is Histone-lysine N-methyltransferase KMT5B (Homo sapiens) (UniProt Q4FZB7). The experiment in a line: Inhibition of SUV4-20H1 (unknown origin) at 10 uM using SAM as substrate measured up to 960 mins by AlphaScreen microplate reader assay relative to control. As to conditions: time min <=960.
Series [5] deals with Histone-lysine N-methyltransferase EZH2 (Homo sapiens), Q15910 [Y641C]. Briefly: Inhibition of EZH2 Y641C mutant (unknown origin) at 10 uM using SAM as substrate measured up to 960 mins by AlphaScreen microplate reader assay relative to control. Conditions: time min <=960.
In series [6] the test system is Histone-lysine N-methyltransferase EZH2 (Homo sapiens), Q15910 [Y641H]. Briefly: Inhibition of EZH2 Y641H mutant (unknown origin) at 10 uM using SAM as substrate measured up to 960 mins by AlphaScreen microplate reader assay relative to control. As to conditions: time min <=960.
For series [7], the species on record is Homo sapiens. Briefly: Inhibition of EZH2 (unknown origin) interaction with EED (unknown origin) at 10 uM relative to control.
Series [8] has as its system Pfeiffer. Briefly: Antiproliferative activity against human Pfeiffer cells harboring EZH2 A677G mutant assessed as inhibition of cell growth measured after 6 days by CellTiter-Glo luminescent assay. Format: functional. As to conditions: 144 h, time 6 day.
For series [9], the system named is Daudi. The experiment in a line: Antiproliferative activity against human Daudi cells expressing wild type EZH2 assessed as inhibition of cell growth measured after 6 days by CellTiter-Glo luminescent assay. Conditions: 144 h. In general terms: Cellular ATP, detected with luciferase, serves as a proxy for viable cell number.
Series [10] concerns Pfeiffer. Briefly: Antitumor activity against human Pfeiffer cells harboring EZH2 A677G mutant xenografted in NCG mouse assessed as tumor growth inhibition at 100 mg/kg, po BID via gavage measured after 28 days relative to control. The series is classed as functional. As to conditions: 672 h, time 28 day, read-out: TGI. A general note: In xenograft studies the graft and the host belong to different species.

For series [11], the system named is KARPAS-422. The experiment in a line: Antitumor activity against human KARPAS-422 cells harboring EZH2 Y641N mutant xenografted in NCG mouse assessed as tumor growth inhibition at 100 mg/kg, po BID via gavage measured after 28 days relative to control. Format: functional. As to conditions: KARPAS-422, po, 672 h, time 28 day, read-out: TGI.
Series [12] has as its system KARPAS-422. Briefly: Antitumor activity against human KARPAS-422 cells harboring EZH2 Y641N mutant xenografted in NCG mouse assessed as tumor growth inhibition at 200 mg/kg, po BID via gavage measured after 28 days relative to control. The series is classed as functional. Conditions: KARPAS-422, po, 672 h, time 28 day, read-out: TGI.
A short description of series [13]: Cmax in mouse at 1 mg/kg, iv measured up to 24 hrs by LC-MS/MS analysis. Format: ADME, organism-based. Conditions: in vivo. Further details: route intravenous, dose 1 mg/kg, time <=24.
Series [14] is described as follows: AUC (0 to infinity) in mouse at 1 mg/kg, iv measured up to 24 hrs by LC-MS/MS analysis. Format: ADME, organism-based. Further details: route intravenous, dose 1 mg/kg, time <=24. As to conditions: in vivo.

The text below walks through data of ChEMBL document CHEMBL4831544, “Discovery of IHMT-EZH2-115 as a Potent and Selective Enhancer of Zeste Homolog 2 (EZH2) Inhibitor for the Treatment of B-Cell Lymphomas” (J Med Chem, 2021).

Chain of Protein arginine N-methyltransferase 3 (Homo sapiens) (O60678 2-531 limits assumed): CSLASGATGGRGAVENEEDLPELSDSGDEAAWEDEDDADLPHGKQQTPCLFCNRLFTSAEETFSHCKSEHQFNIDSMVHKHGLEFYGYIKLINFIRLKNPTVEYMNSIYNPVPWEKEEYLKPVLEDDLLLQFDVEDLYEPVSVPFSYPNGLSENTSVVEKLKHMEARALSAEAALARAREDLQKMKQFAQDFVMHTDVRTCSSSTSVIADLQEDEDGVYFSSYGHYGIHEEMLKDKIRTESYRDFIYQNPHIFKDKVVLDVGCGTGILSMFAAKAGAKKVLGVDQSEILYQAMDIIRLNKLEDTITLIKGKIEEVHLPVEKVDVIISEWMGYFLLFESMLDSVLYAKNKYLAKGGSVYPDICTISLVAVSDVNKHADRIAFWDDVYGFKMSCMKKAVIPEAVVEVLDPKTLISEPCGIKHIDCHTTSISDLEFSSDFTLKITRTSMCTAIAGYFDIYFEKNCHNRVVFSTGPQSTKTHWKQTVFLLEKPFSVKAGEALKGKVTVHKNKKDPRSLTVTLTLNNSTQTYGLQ
Chain of Histone-lysine N-methyltransferase EHMT1 (Homo sapiens) (Q9H9B1 whole entry): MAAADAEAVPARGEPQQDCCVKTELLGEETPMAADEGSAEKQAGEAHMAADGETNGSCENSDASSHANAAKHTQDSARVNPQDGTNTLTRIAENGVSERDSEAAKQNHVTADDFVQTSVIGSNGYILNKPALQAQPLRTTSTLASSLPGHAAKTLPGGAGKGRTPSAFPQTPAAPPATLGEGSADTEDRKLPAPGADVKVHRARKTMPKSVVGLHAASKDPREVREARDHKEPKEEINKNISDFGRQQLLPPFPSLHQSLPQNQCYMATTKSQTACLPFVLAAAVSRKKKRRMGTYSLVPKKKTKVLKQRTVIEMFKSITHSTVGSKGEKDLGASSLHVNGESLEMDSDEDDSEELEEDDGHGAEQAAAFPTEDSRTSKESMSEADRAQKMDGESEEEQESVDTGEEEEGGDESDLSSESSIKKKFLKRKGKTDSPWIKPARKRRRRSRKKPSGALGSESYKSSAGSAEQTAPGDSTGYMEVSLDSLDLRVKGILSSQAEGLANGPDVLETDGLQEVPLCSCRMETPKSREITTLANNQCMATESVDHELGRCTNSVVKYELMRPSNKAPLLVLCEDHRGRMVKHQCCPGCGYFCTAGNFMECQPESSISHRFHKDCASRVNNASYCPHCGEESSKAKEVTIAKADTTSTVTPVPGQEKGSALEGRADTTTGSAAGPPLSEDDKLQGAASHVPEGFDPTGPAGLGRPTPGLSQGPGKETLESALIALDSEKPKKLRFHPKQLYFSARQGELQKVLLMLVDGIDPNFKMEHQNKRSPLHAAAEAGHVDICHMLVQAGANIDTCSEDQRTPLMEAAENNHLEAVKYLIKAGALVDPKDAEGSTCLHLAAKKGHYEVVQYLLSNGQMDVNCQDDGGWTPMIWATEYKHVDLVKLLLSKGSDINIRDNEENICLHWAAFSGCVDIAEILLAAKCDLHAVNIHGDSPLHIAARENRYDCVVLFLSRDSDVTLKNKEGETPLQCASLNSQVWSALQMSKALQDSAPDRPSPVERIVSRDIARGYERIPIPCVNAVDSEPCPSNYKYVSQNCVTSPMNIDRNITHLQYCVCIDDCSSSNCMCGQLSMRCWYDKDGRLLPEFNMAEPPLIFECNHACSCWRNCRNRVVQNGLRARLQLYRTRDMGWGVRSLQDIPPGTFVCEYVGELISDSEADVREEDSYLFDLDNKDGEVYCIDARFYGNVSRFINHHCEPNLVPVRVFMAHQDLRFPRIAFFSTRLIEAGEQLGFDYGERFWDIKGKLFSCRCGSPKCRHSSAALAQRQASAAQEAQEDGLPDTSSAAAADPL
Chain of Histone-lysine N-methyltransferase KMT5B (Homo sapiens) (Q4FZB7 whole entry, looked up): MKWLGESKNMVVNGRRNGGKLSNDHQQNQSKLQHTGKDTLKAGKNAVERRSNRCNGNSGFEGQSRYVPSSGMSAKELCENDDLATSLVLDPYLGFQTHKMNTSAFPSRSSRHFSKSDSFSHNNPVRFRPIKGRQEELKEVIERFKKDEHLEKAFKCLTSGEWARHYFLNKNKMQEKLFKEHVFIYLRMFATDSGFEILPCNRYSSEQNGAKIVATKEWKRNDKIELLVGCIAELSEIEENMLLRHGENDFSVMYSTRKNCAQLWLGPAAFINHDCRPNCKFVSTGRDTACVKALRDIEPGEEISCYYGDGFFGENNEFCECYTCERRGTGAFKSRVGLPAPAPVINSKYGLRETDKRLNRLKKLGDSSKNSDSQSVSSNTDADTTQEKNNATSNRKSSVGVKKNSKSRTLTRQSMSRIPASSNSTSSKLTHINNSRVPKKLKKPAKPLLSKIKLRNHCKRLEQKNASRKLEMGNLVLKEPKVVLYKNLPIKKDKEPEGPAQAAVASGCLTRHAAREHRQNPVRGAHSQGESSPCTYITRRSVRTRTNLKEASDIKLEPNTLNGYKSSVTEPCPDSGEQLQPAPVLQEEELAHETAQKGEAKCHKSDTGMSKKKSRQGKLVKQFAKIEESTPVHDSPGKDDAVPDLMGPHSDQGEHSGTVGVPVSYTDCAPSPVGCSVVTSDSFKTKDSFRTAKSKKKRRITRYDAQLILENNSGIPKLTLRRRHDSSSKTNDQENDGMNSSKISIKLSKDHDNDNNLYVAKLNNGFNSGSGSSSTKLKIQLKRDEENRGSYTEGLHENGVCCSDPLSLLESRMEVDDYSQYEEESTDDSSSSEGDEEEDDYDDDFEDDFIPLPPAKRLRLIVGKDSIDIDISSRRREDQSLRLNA
Chain of Histone-lysine N-methyltransferase EZH2 (Homo sapiens), Q15910 [Y641H] (Q15910 whole entry Y641H): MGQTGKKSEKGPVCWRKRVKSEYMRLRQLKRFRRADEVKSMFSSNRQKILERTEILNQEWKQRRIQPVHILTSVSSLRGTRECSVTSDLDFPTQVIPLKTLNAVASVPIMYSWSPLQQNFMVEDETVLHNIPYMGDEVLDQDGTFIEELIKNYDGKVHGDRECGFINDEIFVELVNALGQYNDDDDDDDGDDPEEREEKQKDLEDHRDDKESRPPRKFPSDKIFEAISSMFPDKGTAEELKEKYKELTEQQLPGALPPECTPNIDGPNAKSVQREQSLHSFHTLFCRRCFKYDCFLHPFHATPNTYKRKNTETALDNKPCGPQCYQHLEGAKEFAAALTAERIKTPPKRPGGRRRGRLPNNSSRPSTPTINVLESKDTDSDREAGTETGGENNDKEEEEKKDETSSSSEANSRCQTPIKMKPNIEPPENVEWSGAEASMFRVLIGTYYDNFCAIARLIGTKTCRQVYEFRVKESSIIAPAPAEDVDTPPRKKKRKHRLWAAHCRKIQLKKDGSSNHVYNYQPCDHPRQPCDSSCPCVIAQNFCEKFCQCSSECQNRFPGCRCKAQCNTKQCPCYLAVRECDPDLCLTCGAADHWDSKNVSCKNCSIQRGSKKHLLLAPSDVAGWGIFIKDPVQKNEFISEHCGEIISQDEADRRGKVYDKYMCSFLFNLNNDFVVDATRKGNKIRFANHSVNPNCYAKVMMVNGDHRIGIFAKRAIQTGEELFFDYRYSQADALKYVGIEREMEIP
Chain of Histone-lysine N-methyltransferase EZH2 (Homo sapiens), Q15910 [Y641C] (Q15910 whole entry Y641C): as the sequence (Q15910 whole entry Y641H) above, with H641C counted along it

The CL/F is the apparent clearance, not corrected for the fraction that reaches the circulation. By inhibition is commonly meant the share of the control response that was lost under treatment. The low end stands for a response near the control, the high end for a response far below the control. Usually GI50 stands for the concentration that inhibits growth by half. By Cmax is commonly meant the highest concentration seen after dosing. What is called AUC(0-inf) is the area under the concentration-time curve extrapolated to infinity. Low values mean low exposure, high ones high exposure. `CCN(C(=O)C1CC1)c1cc(-c2ccc(N3CCN(CC4CC4)CC3)nc2C)cc(C(=O)NCc2c(C)cc(C)[nH]c2=O)c1C` had a CL/F in series [1] of 291 mL/min/kg. Besides, the inhibition in series [2] stood at 0%; in series [3], 0%; in [4] it was 0%; in series [5] it was 95%; in series [6], 81%; in [7] it was 21%. The GI50 in series [8] was 3 nM; in series [9], > 10000 nM. The values for the inhibition in vivo at 100 mg/kg in series [10] and in series [11] were 100% and 70.1%, respectively. In addition, in series [12], the inhibition in vivo at 200 mg/kg turned out to be 97.3%. Moreover, in series [13], the Cmax came to 1240 ng/mL. The same molecule yielded an AUC(0-inf) in series [14] of 372 ng·h/mL.
